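Growth conditions: 96-well plates. Treatment: test compound, 48 hours, 5 concentrations. Analysis: linear interpolation between bracketing concentrations; unreached endpoints set to highest concentration. GI50: concentration for 50% inhibition of growth. TGI marks complete inhibition of growth.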
Columns and labels:
Experiment in all cases: inhibition of tumour cell growth, NCI panel, 48 h
MDA-N = test system: MDA-N
COLO 205 colon = test system: COLO 205 colon
TK-10 renal = test system: TK-10 renal
DU-145 prostate = test system: DU-145 prostate
RPMI-8226 leukemia = test system: RPMI-8226 leukemia
OVCAR-3 ovarian = test system: OVCAR-3 ovarian
MOLT-4 leukemia = test system: MOLT-4 leukemia
OVCAR-8 ovarian = test system: OVCAR-8 ovarian
MDA-MB-435 = test system: MDA-MB-435
MDA-MB-231 breast = test system: MDA-MB-231 breast

Compound | TGI (MDA-N) | TGI (COLO 205 colon) | TGI (TK-10 renal) | TGI (DU-145 prostate) | TGI (RPMI-8226 leukemia) | TGI (OVCAR-3 ovarian) | TGI (MOLT-4 leukemia) | TGI (OVCAR-8 ovarian) | TGI (MDA-MB-435) | TGI (MDA-MB-231 breast) | GI50 (MDA-MB-231 breast) | GI50 (COLO 205 colon) | GI50 (TK-10 renal) | GI50 (DU-145 prostate) | GI50 (RPMI-8226 leukemia) | GI50 (OVCAR-3 ovarian) | GI50 (MOLT-4 leukemia) | GI50 (OVCAR-8 ovarian) | GI50 (MDA-MB-435)
CCCCS(=O)CCC(N)P(=O)(O)O (configuration not stated) | > 100 µM | > 100 µM | > 100 µM | > 100 µM | > 100 µM | > 100 µM | > 100 µM | > 100 µM | > 100 µM | – | – | – | – | – | – | – | – | – | –
COc1cccc2c1OC(c1ccc(Cl)cc1)C([N+](=O)[O-])=C2 (configuration not stated) | 3.45 µM | 5.74 µM | 16 µM | 13.2 µM | – | 7.08 µM | 8.58 µM | 10.2 µM | 8.68 µM | 13.8 µM | – | – | – | – | – | – | – | – | –
CCCCCCCCCC1(N=[N+]=[N-])C(=O)c2ccccc2N(C)C1=O (configuration not stated) | 79.1 µM | > 100 µM | > 100 µM | > 100 µM | > 100 µM | 56.4 µM | – | – | 6.88 µM | – | – | – | – | – | – | – | – | – | –
Cc1cc(N)c(C)c2c1[nH]c1ccc(O)cc12 | – | > 100 µM | > 100 µM | – | > 100 µM | > 100 µM | > 100 µM | > 100 µM | – | – | – | – | – | – | – | – | – | – | –
CS(=O)(=O)O[C@H]1CN2C[C@@H](O)[C@@H](O)[C@H]2[C@H]1CO | – | > 100 µM | > 100 µM | > 100 µM | > 100 µM | > 100 µM | > 100 µM | > 100 µM | > 100 µM | > 100 µM | – | – | – | – | – | – | – | – | –
Cc1cc2c(cc1Cl)SC(NS(=O)(=O)c1ccc(Cl)cc1)=NS2(=O)=O | – | > 100 µM | 69.5 µM | > 100 µM | > 100 µM | > 100 µM | 73 µM | – | > 100 µM | > 100 µM | – | – | – | – | – | – | – | – | –
CN(C(=O)C1=CCC2(CC1)OCCO2)c1ccccc1OS(=O)(=O)C(F)(F)F | > 100 µM | > 100 µM | – | > 100 µM | > 100 µM | > 100 µM | > 100 µM | > 100 µM | > 100 µM | > 100 µM | – | – | – | – | – | – | – | – | –
CC(C)(C)[Si](C)(C)OCC1OC(n2ccc(N)nc2=O)C(O[Si](C)(C)C(C)(C)C)C1O[Si](C)(C)C(C)(C)C (configuration not stated) | 13 µM | 9.84 µM | – | 23.7 µM | – | 3.3 µM | – | 5.68 µM | – | 22.7 µM | – | – | – | – | – | – | – | – | –
COc1ccc(N2C(=O)CC(C3CC(C(C)(C)C)CCC3=O)C2=O)cc1 (configuration not stated) | > 100 µM | > 100 µM | > 100 µM | > 100 µM | > 100 µM | – | > 100 µM | > 100 µM | > 100 µM | > 100 µM | – | – | – | – | – | – | – | – | –
CCc1cc2c(oc3cc4ccccc4cc32)c(=O)[nH]1 | > 10 µM | – | > 10 µM | > 10 µM | – | > 10 µM | – | > 10 µM | – | > 10 µM | – | – | – | – | – | – | – | – | –
Cc1cc(C)n(C(=C(C(Cl)=C(Cl)Cl)[N+](=O)[O-])n2nc(C)cc2C)n1 | 13.8 µM | 3.76 µM | 9.36 µM | 14.9 µM | – | 10.4 µM | 5 µM | 9.22 µM | 5.56 µM | 27.8 µM | – | – | – | – | – | – | – | – | –
CC1(C)CC(=O)c2[nH]c3ccccc3c2CC(=O)NCCc2cn1cn2 | > 100 µM | > 100 µM | > 100 µM | > 100 µM | – | > 100 µM | > 100 µM | > 100 µM | > 100 µM | > 100 µM | – | – | – | – | – | – | – | – | –
CN(C)CCCNC(=O)c1cc2[nH]c3c(cnc4ccc([N+](=O)[O-])cc43)c(=O)c2n1C | – | 30.1 µM | 28.2 µM | 25.1 µM | 19.3 µM | 45.9 µM | 33.9 µM | 43.2 µM | 33.6 µM | 30.7 µM | 16.9 µM | 16.5 µM | 14.3 µM | 12.6 µM | 5.83 µM | 19.4 µM | 13.5 µM | 20.2 µM | 17.3 µM
CCOC(=O)C1=C(C)N(Cc2ccc(Cl)cc2Cl)C2(O)C=CC(=O)C3C(=O)N(c4ccccc4)C(=O)C132 (configuration not stated) | – | 3.36 µM | 8.09 µM | 2.97 µM | 2.18 µM | 3.44 µM | 4.93 µM | 7.89 µM | 7.24 µM | 6.44 µM | – | – | – | – | – | – | – | – | –
COC(=O)c1ccc(C(=O)NC(Cc2ccc(Oc3cc(CC(NC(=O)c4ccccc4C(=O)OC)C(=O)OC)ccc3OC)cc2)C(=O)OC)cc1 (configuration not stated) | > 100 µM | > 100 µM | > 100 µM | > 100 µM | > 100 µM | > 100 µM | > 100 µM | > 100 µM | > 100 µM | – | – | – | – | – | – | – | – | – | –
COc1ccc(C2COc3cc(OC(C)=O)c(OC(C)=O)cc3C2)cc1 (configuration not stated) | – | 44.4 µM | – | – | 36.9 µM | 39.9 µM | 29.1 µM | 44.9 µM | – | – | – | – | – | – | – | – | – | – | –
CCOC(=O)C1(C#N)C(c2ccccc2)CC(O)(c2ccc(OC)cc2)C(C(=O)c2ccc(OC)cc2)C1c1ccccc1 (configuration not stated) | – | > 100 µM | > 100 µM | – | > 100 µM | > 100 µM | > 100 µM | > 100 µM | – | – | – | – | – | – | – | – | – | – | –
O=c1cnn(C/C=C/CBr)c(=O)[nH]1 | 33.3 µM | 41.9 µM | – | 43.8 µM | 49.5 µM | 64.2 µM | 50.1 µM | 54 µM | 33.7 µM | 45.6 µM | – | – | – | – | – | – | – | – | –
Nc1ccc(Oc2ccc(C34CC5CC6C3CC3CC4C(C5)C6(c4ccc(Oc5ccc(N)cc5)cc4)C3)cc2)cc1 | 19.1 µM | – | > 68.6 µM | > 100 µM | 47.5 µM | 29.7 µM | 28.3 µM | > 100 µM | 19 µM | 65.7 µM | – | – | – | – | – | – | – | – | –
CC(C)(Br)C(Br)CCC1(C2CO2)CO1 (configuration not stated) | > 5 µM | > 5 µM | – | > 5 µM | > 5 µM | > 5 µM | > 5 µM | > 5 µM | > 5 µM | > 5 µM | – | – | – | – | – | – | – | – | –
C=C(CCC/C(C)=C/C=C/[C@]1(C)CCCc2ccoc21)CC(=O)O | – | > 100 µM | > 100 µM | 98.4 µM | > 100 µM | > 100 µM | > 100 µM | > 100 µM | > 100 µM | > 100 µM | – | – | – | – | – | – | – | – | –
FC(F)(F)c1ccc(N=C/C=C(/Nc2ccc(C(F)(F)F)cc2)c2ccc(Cl)cc2)cc1 | – | 32.6 µM | 69.1 µM | 31.8 µM | 84.8 µM | 27.9 µM | > 100 µM | 39 µM | 23 µM | 37.7 µM | – | – | – | – | – | – | – | – | –
OCC1OC(c2cccc3cc(O)c(O)cc23)CC1O (configuration not stated) | > 100 µM | – | > 100 µM | > 100 µM | > 100 µM | > 100 µM | > 100 µM | > 100 µM | > 100 µM | > 100 µM | – | – | – | – | – | – | – | – | –

Reference: PubChem BioAssay (NCI)
